Literature values in patent US11753385B2, “Method for producing kakeromycin and derivatives thereof” (OP BIO FACTORY CO., LTD., priority 2015, dated 2023).

Legend:
[1] = system: PANC-1 pancreas cancer cell
pathogens of candidiasis = settings: background statement, in words only

For `CC=C(Cc1ccccc1)C12CC(O)CCN1O2` (stereo not drawn) [kakeromycin], the cytotoxicity (HepG2 liver cancer cell) is listed as “shows cytotoxicity”, the cytotoxicity [1] is listed as “shows cytotoxicity” and the “antibacterial activity against pathogens of candidiasis” value (pathogens of candidiasis) is listed as “strong antibacterial activity”.
